Among the data in patent US7163953B2, “Benzylether derivatives” (Hoffmann-La Roche Inc., priority 2004, dated 2007) are inhibition values, retold here.

For the assay, the target named is T1, HER-2 (Homo sapiens, UniProt P04626).
T1 construct: endogenous in cells; host or cells: Calu-3 (human non-small-cell lung cancer, ATCC HTB-55)
The experiment in a line: Inhibition of HER-2 phosphorylation in Calu-3 tumor cell line. It is filed as cell-based. The note with it: compound concentration 1 μM; Calu-3 cells, 16 h incubation; pY 1248 in HER-2; relative to DMSO control; read-out: Percent inhibition of HER-2-phosphorylation. As to the method:
Inhibition of HER-2 Phosphorylation in Calu-3 Tumor Cell Line
2×10^5 Calu-3 cells (Non-Small-Cell Lung Cancer cells, ATTC HTB-55) per well were plated in a 12-well plate. After 4 days cells were starved for 16 h in Dulbecco's Modified Eagle Medium (DMEM)/0.5% Fetal Calf Serum (FCS)/1% Glutamine. During this 16 h period cells were incubated with a solution of the test compound in dimethylsulfoxide (DMSO), so that the final concentration of the compound is 1 μM and the final volume of DMSO is 0.5%. […] Cell lysates were analyzed on a Sodium Dodecyl Sulfate Polyacrylamide Gel Electrophoresis (SDS PAGE) and after transfer to a nitrocellulose membrane detected with an antibody specifically recognizing the pY 1248 in HER-2 (phosphorylated tyrosine residue 1248 of human […]). After incubation with an anti rabbit antibody coupled to POD (peroxidase available from Biorad, Munich, Germany) signals were detected by chemiluminescence (ECL, Amersham). Inhibition of HER-2 phosphorylation is calculated as a percentage of the control, which is treated with DMSO only. The percentage of the inhibition is calculated according to the following formula: Inhibition in %=100−(Phosphorylated-HER2-Signal of Test Sample* 100/Phosphorylated-HER2-Signal DMSO-control).

T1 sequence (P04626 23-1255): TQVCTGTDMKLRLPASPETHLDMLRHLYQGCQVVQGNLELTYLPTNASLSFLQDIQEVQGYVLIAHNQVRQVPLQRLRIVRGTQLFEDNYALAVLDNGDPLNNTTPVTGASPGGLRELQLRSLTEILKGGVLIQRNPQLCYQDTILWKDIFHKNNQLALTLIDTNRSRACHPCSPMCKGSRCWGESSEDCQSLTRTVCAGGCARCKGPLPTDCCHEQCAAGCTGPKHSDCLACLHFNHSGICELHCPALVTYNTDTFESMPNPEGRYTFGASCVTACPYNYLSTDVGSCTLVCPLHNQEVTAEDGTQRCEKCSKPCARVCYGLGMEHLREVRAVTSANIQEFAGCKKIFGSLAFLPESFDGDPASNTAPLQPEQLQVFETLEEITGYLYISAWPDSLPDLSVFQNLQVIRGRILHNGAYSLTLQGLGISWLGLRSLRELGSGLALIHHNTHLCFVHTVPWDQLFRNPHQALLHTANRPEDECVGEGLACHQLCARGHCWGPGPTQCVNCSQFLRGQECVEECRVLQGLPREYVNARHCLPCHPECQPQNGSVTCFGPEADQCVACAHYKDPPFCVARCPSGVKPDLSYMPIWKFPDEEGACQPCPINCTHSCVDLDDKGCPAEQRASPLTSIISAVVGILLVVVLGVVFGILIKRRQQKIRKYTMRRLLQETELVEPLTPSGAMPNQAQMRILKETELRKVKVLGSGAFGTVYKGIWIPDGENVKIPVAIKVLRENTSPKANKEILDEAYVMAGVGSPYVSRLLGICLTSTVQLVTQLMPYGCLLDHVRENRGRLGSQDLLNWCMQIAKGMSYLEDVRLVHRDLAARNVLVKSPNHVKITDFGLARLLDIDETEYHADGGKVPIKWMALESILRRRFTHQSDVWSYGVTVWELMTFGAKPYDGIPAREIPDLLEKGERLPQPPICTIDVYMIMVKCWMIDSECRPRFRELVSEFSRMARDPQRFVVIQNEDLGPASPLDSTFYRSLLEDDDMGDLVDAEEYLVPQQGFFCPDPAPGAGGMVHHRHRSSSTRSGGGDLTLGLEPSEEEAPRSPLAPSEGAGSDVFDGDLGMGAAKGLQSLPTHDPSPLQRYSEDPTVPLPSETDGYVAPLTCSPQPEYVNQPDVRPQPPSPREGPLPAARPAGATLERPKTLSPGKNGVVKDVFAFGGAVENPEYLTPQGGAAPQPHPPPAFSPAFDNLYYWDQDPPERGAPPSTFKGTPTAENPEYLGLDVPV

The inhibition is the change of the read-out against control, counted positive when it falls. As for `Fc1cc(Cl)ccc1/C=C/c1nc(COc2ccc(COCCn3ccnn3)cc2)co1` [Example 1, 1-[2-(4-{2-[2-(E)-(4-Chloro-2-fluoro-phenyl)-vinyl]-oxazol-4-ylmethoxy}-benzyloxy)-ethyl]-1H-[1,2,3]triazole], the inhibition at 1 µM was 65 to 80%.
Regarding `Clc1ccc(/C=C/c2nc(COc3ccc(COCCn4ccnn4)cc3)co2)cc1` [Example 2, 1-[2-(4-{2-[2-(E)-(4-Chloro-phenyl)-vinyl]-oxazol-4-ylmethoxy}-benzyloxy)-ethyl]-1H-[1,2,3]triazole], the inhibition at 1 µM is over 80%.
